From US5190959A, “Piperidine compounds which have useful pharmaceutical activity” (Kaken Pharmaceutical Co. Ltd., priority 1991, dated 1993)
Counter-ions that a name gives are not always drawn.

Columns and labels:
[1] = tested on: anaphylactic histamine release from lung fragments; assay: Inhibition of anaphylactic histamine release (passively sensitized lung fragments, antigen challenge); type: cell-based, Hartley male guinea pig; conditions: Cavia porcellus, 0.25 h; guinea pig lung fragments; DNP-egg albumin 0.3 μg/ml; compound added 10 min before antigen challenge; 37° C.; read-out: 25%-inhibitory conc. (anaphylactic histamine release)
Experimental: Inhibition of anaphylactic histamine release
Hartley male guinea pigs weighing about 450 g which were passively sensitized with an anti-DNP-egg albumin guinea pig serum were killed with a thiopentbarbital anesthetia. Their lungs were perfused by way of the pulmonary artery with a Tyrode's solution. The lungs were removed and fragmented. A definite weight of 100 mg lung fragments, which was distributed into individual tubes and suspended in 1 ml of Tyrode's solution, was challenged with the antigen (DNP-egg albumin, final concentration: 0.3 μg/ml) at 37° C. for 15 min. The test compounds obtained in Example, which were dissolved or suspended in Tyrode's solution, were added 10 min before antigen challenge. The reaction was stopped by immersing in ice cold water, and then centrifuged. The amount of histamine in the supernatant fluid was measured by using fluoremetric method according to Shore et al.
A: amount of histamine released by the antigen stimulation in the presence of a compound of the present invention
B: amount of histamine released spontaneously
C: amount of histamine released by the antigen stimulation.

[2] = tested on: isolated heart; assay: Langendorff perfused isolated heart: perfusion pressure, contractive force, heart rate; set-up: species or system Wistar male rat; conditions: for Contractive force (Δ %) / Heart rate (Δ %) / Perfusion pressure (Δ %): means value ± S.D., n = 3-4
Experimental: Hearts were isolated from Std; Wistar male rats weighing 200-300 g (9-10 weeks old). The hearts were perfused using Langendorff's apparatus at a flow rate of 8 ml/min. As a perfusate, Krebs-Henseleit-bicarbonate solution (37° C., pH 7.4) containing 11 mM glucose, oxygenated with a mixed gas of 95% O2 and 5% CO2 was used. The heart was preloaded with an initial resting tension of 2.0 g and paced at 200-300 beats min^-1. After the hearts were allowed to be stable for 30-60 minutes, 0.1 ml of a solution of each test compound in 10% DMSO was added thereto to be a concentration of 0.1, 1.0, 10 or 100 μg of each compound per heart.
Myocardial contractile force was isometrically measured by means of a force-displacement transducer (Type: TB-612T, made by Nihon Kohden Kogyo KK) connected to the apex of the heart through a thread. Coronary perfusion pressure was monitored by an electric manometer (Type: MPU-0.5, made by Nihon Kohden Kogyo KK) connected to a side branch of the aortic cannule.
[formula] A: value before adding a test compound B: value after adding a test compound

[3] = biological target: T1, histamine-induced constriction of tracheal smooth muscle (Cavia porcellus, UniProt P31389); assay: Antihistaminic activity (isolated tracheal smooth muscle chain strips, histamine constriction); type: cell-based, Hartley male guinea pig; conditions: guinea pig tracheal strip; compound 5 min prior to histamine; Van Rossum; read-out: pA2 (converted)
T1 construct: Isolated tracheal smooth muscle chain strips were prepared by a usual method; from tissue; host or cells: isolated tracheal smooth muscle chain strips of Hartley male guinea pigs
T1 sequence (P31389 whole entry): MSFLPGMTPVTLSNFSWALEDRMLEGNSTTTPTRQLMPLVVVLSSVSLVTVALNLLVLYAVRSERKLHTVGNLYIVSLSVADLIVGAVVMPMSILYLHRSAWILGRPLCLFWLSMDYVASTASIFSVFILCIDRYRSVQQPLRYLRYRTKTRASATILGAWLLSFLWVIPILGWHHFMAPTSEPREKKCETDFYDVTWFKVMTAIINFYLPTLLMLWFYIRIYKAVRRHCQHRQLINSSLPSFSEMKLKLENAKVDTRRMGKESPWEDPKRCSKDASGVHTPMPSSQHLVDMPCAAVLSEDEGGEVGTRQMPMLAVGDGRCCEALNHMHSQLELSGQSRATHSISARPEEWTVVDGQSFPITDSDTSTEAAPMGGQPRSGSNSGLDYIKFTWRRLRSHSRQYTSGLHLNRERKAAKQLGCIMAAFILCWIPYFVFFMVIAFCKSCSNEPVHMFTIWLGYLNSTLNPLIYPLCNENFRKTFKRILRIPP
Experimental: Hartley male guinea pigs weighing 500-600 g were used. Isolated tracheal smooth muscle chain strips were prepared by a usual method and suspended in 2 ml organ bath of Tyrode's solution aerated with 95% O2.5 % CO2 at 37° C. Each strip was attached to an isotonic transducer (made by Nihon Koden Kogyo KK) with a load of 0.5 g. After almost constant contraction, histamine was added cumulatively, until maximum constriction was obtained. The constriction of tracheal strip was recorded by Servocorder (made by Giraphtec KK). The strip was washed with Tyrode's solution and allowed to stabilize. Test compound was to the bath 5 min prior to the addition of histamine and the response curve to the histamine was repeated. The pA2 values were calculated using the techniques of Van Rossum.

[4] = Acute oral toxicity (LD50); conditions: mouse, in vivo, mice 22-27 g, ddY, male, 5 weeks
Experimental: The LD50 of the compounds obtained in Examples 1, 34, 37, 40 and 44 were more than 500 mg/kg when these compounds were given orally to mice weighing 22-27 g (ddY, male, 5 weeks).

[5] = 1 μg/heart, ** p <0.01 vs control
[6] = 10 μg/heart, ** p <0.01 vs control
[7] = 100 μg/heart, ** p <0.01 vs control

SMILES	IC25 [1]	Contractive force (Δ %) ([2]; 0.1 μg/heart)	Heart rate (Δ %) ([2]; 0.1 μg/heart)	Heart rate (Δ %) ([2]; 1 μg/heart)	Contractive force (Δ %) [2, 5]	Perfusion pressure (Δ %) [2, 5]	Contractive force (Δ %) [2, 6]	Heart rate (Δ %) [2, 6]	Perfusion pressure (Δ %) [2, 6]	Contractive force (Δ %) [2, 7]	Heart rate (Δ %) [2, 7]	Perfusion pressure (Δ %) [2, 7]	Kb [3]	LD50 [4]	also measured
CC(C)c1ccc2oc3nc(N)c(C(=O)O)cc3c(=O)c2c1 [Amlexanox, reference compound]	30000 nM														
COc1ccc([C@@H]2Sc3ccccc3N(CCN(C)C)C(=O)[C@@H]2OC(C)=O)cc1 [Diltiazem hydrochloride, reference compound]		3.5 ± 6.9%	-2.7 ± 1.8%	-3.5 ± 2.4%	7.0 ± 16.1%	-32.1 ± 6.9%	-67.1 ± 17.5%	-25.9 ± 30.3%	-47.1 ± 1.4%	-86.5 ± 7.0%	-71.4 ± 11.9%	-48.8 ± 1.4%			contractive force (in words) ([2]; 10 μg/heart): significant lowerings; heart rates (in words) ([2]; 10 μg/heart): significant lowerings
CS(=O)(=O)Nc1ccccc1OCCCN1CCC(OC(c2ccccc2)c2ccccc2)CC1 [Example 1, 4-diphenylmethoxy-1-[3-(2-methanesulfonylaminophenoxy)propyl]piperidine]	1000 nM	2.0 ± 3.6%	0.7 ± 1.2%	-0.7 ± 1.2%	11.9 ± 2.4%	-24.8 ± 3.0%	11.8 ± 2.3%	-0.7 ± 1.2%	-42.9 ± 3.2%	-25.0 ± 6.8%	-16.6 ± 15.6%	-49.0 ± 4.8%	2 nM	> 500 mg/kg	Perfusion pressure (Δ %) ([2]; 0.1 μg/heart): -8.39 ± 3.4%
CS(=O)(=O)Nc1ccccc1OCCCN1CCC(OC(c2ccc(Cl)cc2)c2ccccn2)CC1 (stereo not drawn) [Example 33, 4-[(4-chlorophenyl)-2-pyridylmethoxy]-1-[3-(2-methanesulfonylaminophenoxy)propyl]piperidine]		5.0 ± 4.3%	-1.2 ± 2.1%	-1.9 ± 1.8%	13.3 ± 1.9%	-19.2 ± 2.2%	16.0 ± 4.5%	-4.6 ± 4.7%	-39.1 ± 5.4%	-46.2 ± 13.4%	-17.2 ± 10.1%	-40.1 ± 5.2%			Perfusion pressure (Δ %) ([2]; 0.1 μg/heart): -7.0 ± 6.1%
CS(=O)(=O)Nc1ccccc1OCCCN1CCC(OC(c2ccccc2)c2cccnc2)CC1 (stereo not drawn) [Example 34 (fumarate)]	1000 nM												0.126 nM		
CS(=O)(=O)Nc1ccccc1OCCCN1CCC(OC(c2ccccc2)c2cccnc2)CC1 (stereo not drawn) [Example 34, 4-(phenyl-3-pyridylmethoxy)-1-[3-(2-methanesulfonylaminophenoxy)propyl]piperidine]														> 500 mg/kg	
CS(=O)(=O)Nc1ccccc1OCCCN1CCC(OC(c2ccccc2)c2cccs2)CC1 (stereo not drawn) [Example 36 (fumarate)]	100 nM												2.51 nM		
CC(CCOc1ccccc1NS(C)(=O)=O)N1CCC(OC(c2ccccc2)c2cccs2)CC1 (stereo not drawn) [Example 37, 4-(phenyl-2-thienylmethoxy)-1-[3-(2-methanesulfonylaminophenoxy)-1-methylpropyl]piperidine]	100 nM												3.98 nM	> 500 mg/kg	
CS(=O)(=O)Nc1ccccc1OC/C=C\CN1CCC(OC(c2ccccc2)c2cccs2)CC1 (stereo not drawn) [Example 40, 4-(phenyl-2-thienylmethoxy)-1-[4-(2-methanesulfonylaminophenoxy)-2(Z)-butenyl]piperidine]	100 nM												6.31 nM	> 500 mg/kg	
CS(=O)(=O)Nc1ccccc1OCCCN1CCC(OC(c2ccsc2)c2ccsc2)CC1 [Example 44 (fumarate)]	30 nM												2.51 nM		
CS(=O)(=O)Nc1ccccc1OCCCN1CCC(OC(c2ccsc2)c2ccsc2)CC1 [Example 44, 4-di(3-thienyl)methoxy-1-[3-(2-methanesulfonylaminophenoxy)propyl]piperidine]		8.8 ± 2.5%	-5.7 ± 1.4%	-3.6 ± 4.1%	19.1 ± 5.7%	-28.9 ± 3.0%	16.2 ± 11.3%	-6.3 ± 1.5%	-47.9 ± 4.8%	-46.3 ± 19.4%	-59.9 ± 11.1%	-55.8 ± 3.5%		> 500 mg/kg	Perfusion pressure (Δ %) ([2]; 0.1 μg/heart): -6.0 ± 13.7%
O=c1[nH]c2ccccc2n1CCCN1CCN(C(c2ccccc2)c2ccccc2)CC1 [Oxatomide, reference compound]	100000 nM												1.26 nM		
